Measurements as given in the supplement of paper PMC13207355.
Counter-ions that a name gives are not always drawn.

How the values were obtained:
Details in all cases: exposure time: 72 h
E31 [1] = patient-derived glioblastoma stem cells of proneural subtype; assay: phenotypic distance (Euclidean, principal components) from DMSO controls (arbitrary units); higher = stronger morphological change
FT3469 [2] = normal neural stem cell line; assay: as above
E57 [3] = patient-derived glioblastoma stem cells of mesenchymal subtype; assay: as above
E21 [4] = patient-derived glioblastoma stem cells of mesenchymal subtype; assay: as above
E13 [5] = patient-derived glioblastoma stem cells of classical subtype; assay: as above
E28 [6] = patient-derived glioblastoma stem cells of classical subtype; assay: as above
E34 [7] = patient-derived glioblastoma stem cells of proneural subtype; assay: as above
E31 [8] = assay: surviving fraction (nuclei count normalised to DMSO); higher = more cells surviving (less toxic)
FT3469 [9] = assay: as above
E57 [10] = assay: as above
E21 [11] = assay: as above
E13 [12] = assay: as above
E28 [13] = assay: as above
E34 [14] = assay: as above
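Throughout, for phenotypic distance (Euclidean, principal components) from DMSO controls: cell Painting imaging in 384-well plates, CellProfiler features reduced to at least 20 principal components, Euclidean distance versus same-plate DMSO vehicle wells (0.1% v/v), median over six images per well.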
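Throughout, for surviving fraction (nuclei count normalised to DMSO): nuclei counted by high-content imaging of Hoechst-stained cells in laminin-coated 384-well plates, relative to 0.1% DMSO vehicle wells, with staurosporine as cell-death control.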

CC(C)C[C@H]1C(=O)N2CCC[C@H]2[C@]2(O)O[C@](NC(=O)[C@@H]3C=C4c5cccc6[nH]c(Br)c(c56)C[C@H]4N(C)C3)(C(C)C)C(=O)N12 [Bromocryptine mesylate]
Details | phenotypic distance | surviving fraction
E13 [5], 4.1 nM | 0.797 | –
E13 [5], 12.3 nM | 0.698 | –
E13 [5], 37 nM | 0.44 | –
E13 [5], 111.1 nM | 1.07 | –
E13 [5], 333.3 nM | 0.683 | –
E13 [5], 1000 nM | 1.03 | –
E13 [5], 3000 nM | 1.57 | –
E13 [12], 4.1 nM | – | 0.907
E13 [12], 12.3 nM | – | 0.944
E13 [12], 37 nM | – | 0.958
E13 [12], 111.1 nM | – | 0.816
E13 [12], 333.3 nM | – | 0.981
E13 [12], 1000 nM | – | 0.976
E13 [12], 3000 nM | – | 0.8
E21 [4], 4.1 nM | 0.67 | –
E21 [4], 12.3 nM | 0.901 | –
E21 [4], 37 nM | 0.972 | –
E21 [4], 111.1 nM | 0.667 | –
E21 [4], 333.3 nM | 0.353 | –
E21 [4], 1000 nM | 0.811 | –
E21 [4], 3000 nM | 0.593 | –
E21 [11], 4.1 nM | – | 1.06
E21 [11], 12.3 nM | – | 1.02
E21 [11], 37 nM | – | 1.05
E21 [11], 111.1 nM | – | 0.989
E21 [11], 333.3 nM | – | 1
E21 [11], 1000 nM | – | 0.969
E21 [11], 3000 nM | – | 0.967
E28 [6], 4.1 nM | 1.04 | –
E28 [6], 12.3 nM | 0.531 | –
E28 [6], 37 nM | 0.575 | –
E28 [6], 111.1 nM | 0.661 | –
E28 [6], 333.3 nM | 0.642 | –
E28 [6], 1000 nM | 0.784 | –
E28 [6], 3000 nM | 1.28 | –
E28 [13], 4.1 nM | – | 1.1
E28 [13], 12.3 nM | – | 1.07
E28 [13], 37 nM | – | 1.07
E28 [13], 111.1 nM | – | 1.12
E28 [13], 333.3 nM | – | 0.978
E28 [13], 1000 nM | – | 1.05
E28 [13], 3000 nM | – | 0.779
E31 [1], 4.1 nM | 0.381 | –
E31 [1], 12.3 nM | 0.548 | –
E31 [1], 37 nM | 0.581 | –
E31 [1], 111.1 nM | 0.404 | –
E31 [1], 333.3 nM | 0.658 | –
E31 [1], 1000 nM | 0.705 | –
E31 [1], 3000 nM | 0.828 | –
E31 [8], 4.1 nM | – | 1.07
E31 [8], 12.3 nM | – | 1.06
E31 [8], 37 nM | – | 0.944
E31 [8], 111.1 nM | – | 1.15
E31 [8], 333.3 nM | – | 1.03
E31 [8], 1000 nM | – | 1.13
E31 [8], 3000 nM | – | 0.897
E34 [7], 4.1 nM | 0.67 | –
E34 [7], 12.3 nM | 0.914 | –
E34 [7], 37 nM | 0.493 | –
E34 [7], 111.1 nM | 0.843 | –
E34 [7], 333.3 nM | 1.2 | –
E34 [7], 1000 nM | 0.94 | –
E34 [7], 3000 nM | 1.28 | –
E34 [14], 4.1 nM | – | 0.907
E34 [14], 12.3 nM | – | 0.846
E34 [14], 37 nM | – | 0.967
E34 [14], 111.1 nM | – | 1.16
E34 [14], 333.3 nM | – | 0.879
E34 [14], 1000 nM | – | 1.05
E34 [14], 3000 nM | – | 0.727
E57 [3], 4.1 nM | 0.496 | –
E57 [3], 12.3 nM | 0.874 | –
E57 [3], 37 nM | 0.757 | –
E57 [3], 111.1 nM | 5.36 | –
E57 [3], 333.3 nM | 0.51 | –
E57 [3], 1000 nM | 0.474 | –
E57 [3], 3000 nM | 1.74 | –
E57 [10], 4.1 nM | – | 0.932
E57 [10], 12.3 nM | – | 1.13
E57 [10], 37 nM | – | 0.893
E57 [10], 111.1 nM | – | 1.05
E57 [10], 333.3 nM | – | 1.01
E57 [10], 1000 nM | – | 0.91
E57 [10], 3000 nM | – | 0.777
FT3469 [2], 4.1 nM | 1.05 | –
FT3469 [2], 12.3 nM | 1.08 | –
FT3469 [2], 37 nM | 0.956 | –
FT3469 [2], 111.1 nM | 0.691 | –
FT3469 [2], 333.3 nM | 0.43 | –
FT3469 [2], 1000 nM | 0.442 | –
FT3469 [2], 3000 nM | 0.73 | –
FT3469 [9], 4.1 nM | – | 0.76
FT3469 [9], 12.3 nM | – | 0.909
FT3469 [9], 37 nM | – | 1.01
FT3469 [9], 111.1 nM | – | 0.932
FT3469 [9], 333.3 nM | – | 0.984
FT3469 [9], 1000 nM | – | 1.01
FT3469 [9], 3000 nM | – | 0.912
